From doi:10.1101/2025.07.01.658226v1 (biorxiv, 2025)

Biological target: T1, SyHR (Synechocystis sp. PCC 7509, UniProt A0A9X9ZA75)
T1 sequence (A0A9X9ZA75 1-234): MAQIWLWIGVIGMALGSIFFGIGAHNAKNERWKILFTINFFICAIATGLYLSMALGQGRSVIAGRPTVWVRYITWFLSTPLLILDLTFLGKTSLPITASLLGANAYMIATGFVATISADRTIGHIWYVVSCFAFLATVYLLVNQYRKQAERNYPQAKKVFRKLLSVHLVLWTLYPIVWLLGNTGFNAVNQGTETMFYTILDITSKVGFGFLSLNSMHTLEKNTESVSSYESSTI
Assay: absorption spectral shift titration, Hill fit
Type: binding

Compound	Kd
Cl [a, Cl^−]	280 ± 50 µM
Br [b, Br^−]	110 ± 20 µM
O=[N+]([O-])O [c, NO3^−]	6150 ± 750 µM
I [d, I^−]	210 ± 30 µM
